Results from ChEMBL document CHEMBL5634077, “Recent advances in 1,2,3- and 1,2,4-triazole hybrids as antimicrobials and their SAR: A critical review” (2023).
In brackets after ≈: the same amount, converted by molar mass.

How the values were obtained:
Bacillus cereus [1] = assay: Antibacterial activity against Bacillus cereus NCIM-2156 by CLSI based microdilution assay; assay type: functional
Proteus vulgaris [2] = assay: Antibacterial activity against Proteus vulgaris NCIM-2027 by CLSI based microdilution assay; assay type: functional
Escherichia coli [3] = assay: Antibacterial activity against Escherichia coli NCIM-2065 by CLSI based microdilution assay; assay type: functional
Bacillus subtilis [4] = assay: Antibacterial activity against Bacillus subtilis NCIM-2063 by CLSI based microdilution assay; assay type: functional
Staphylococcus aureus [5] = assay: Antibacterial activity against Staphylococcus aureus NCIM-2079 by CLSI based microdilution assay; assay type: functional
Candida parapsilosis = assay: Antifungal activity against Candida parapsilosis IFRC 1269 assessed as reduction in fungal growth by CLSI based micro-dilution asssay; assay type: functional; conditions: Lodderomyces parapsilosis
Candida albicans [6] = assay: Antifungal activity against Candida albicans IFRC 194 assessed as reduction in fungal growth by CLSI based micro-dilution asssay; assay type: functional
Candida tropicalis = assay: Antifungal activity against Candida tropicalis IFRC 1057 assessed as reduction in fungal growth by CLSI based micro-dilution asssay; assay type: functional
Nakaseomyces glabratus [7] = assay: Antifungal activity against Candida glabrata assessed as reduction in fungal growth by CLSI based micro-dilution asssay; assay type: functional
Pichia kudriavzevii = assay: Antifungal activity against Candida krusei IFRC 1012 assessed as reduction in fungal growth by CLSI based micro-dilution asssay; assay type: functional
Staphylococcus aureus [8] = assay: Antibacterial activity against Staphylococcus aureus assessed as reduction in bacterial growth by broth microdilution method; assay type: functional
Bacillus subtilis [9] = assay: Antibacterial activity against Bacillus subtilis assessed as reduction in bacterial growth; assay type: functional
Escherichia coli [10] = assay: Antibacterial activity against Escherichia coli ATCC 8739 assessed as reduction in bacterial growth by micro-broth dilution method; assay type: functional
Micrococcus luteus [11] = assay: Antibacterial activity against Micrococcus luteus IFC 12708 assessed as reduction in microbial growth; assay type: functional
Staphylococcus aureus [12] = assay: Antibacterial activity against Staphylococcus aureus ATCC 6538p assessed as reduction in microbial growth; assay type: functional
Micrococcus luteus [13] = assay: Antibacterial activity against Micrococcus luteus assessed as reduction in microbial growth; assay type: functional
Staphylococcus aureus [14] = assay: Antibacterial activity against Staphylococcus aureus ATCC 29213 assessed as reduction in bacterial growth by micro-broth dilution method; assay type: functional
Pseudomonas aeruginosa [15] = assay: Antibacterial activity against Pseudomonas aeruginosa MTCC 1034 assessed as reduction in bacterial growth; assay type: functional
Pseudomonas aeruginosa [16] = assay: Antibacterial activity against Pseudomonas aeruginosa MCCB 0035 assessed as reduction in bacterial growth by micro-broth dilution method; assay type: functional
Bacillus subtilis [17] = assay: Antibacterial activity against Bacillus subtilis ATCC 6633 assessed as reduction in microbial growth; assay type: functional
Escherichia coli [18] = assay: Antibacterial activity against Escherichia coli ATCC 25922 assessed as reduction in microbial growth; assay type: functional
Proteus vulgaris [19] = assay: Antibacterial activity against Proteus vulgaris ATCC 3851 assessed as reduction in microbial growth; assay type: functional
Proteus vulgaris [20] = assay: Antibacterial activity against Proteus vulgaris assessed as reduction in bacterial growth; assay type: functional
Salmonella typhimurium = assay: Antibacterial activity against Salmonella typhimurium SL1344 assessed as reduction in microbial growth; assay type: functional, Salmonella enterica subsp. enterica serovar Typhimurium; conditions: Salmonella enterica
Bacillus subtilis [21] = assay: Antibacterial activity against Bacillus subtilis MTCC 441 assessed as reduction in bacterial growth; assay type: functional
Bacillus subtilis [22] = assay: Antibacterial activity against Bacillus subtilis NCIM 2063 assessed as reduction in bacterial growth incubated for 18 to 24 hrs by broth microdilution method; assay type: functional; conditions: time 18-24 hrs
Staphylococcus aureus [23] = assay: Antibacterial activity against Staphylococcus aureus; assay type: functional
Klebsiella pneumoniae = assay: Antibacterial activity against Klebsiella pneumoniae assessed as inhibition of bacterial growth; assay type: functional
Proteus vulgaris [24] = assay: Antibacterial activity against Proteus vulgaris NCIM 2027 assessed as reduction in bacterial growth incubated for 18 to 24 hrs by broth microdilution method; assay type: functional; conditions: time 18-24 hrs
Pseudomonas aeruginosa [25] = assay: Antibacterial activity against Pseudomonas aeruginosa assessed as reduction in bacterial growth; assay type: functional
Bacillus cereus [26] = assay: Antibacterial activity against Bacillus cereus NCIM 2156 assessed as reduction in bacterial growth incubated for 18 to 24 hrs by broth microdilution method; assay type: functional; conditions: time 18-24 hrs
Staphylococcus aureus [27] = assay: Antibacterial activity against Staphylococcus aureus MTCC 3160 assessed as reduction in bacterial growth; assay type: functional
Proteus mirabilis = assay: Antibacterial activity against Proteus mirabilis NCIM 2241 assessed as reduction in bacterial growth incubated for 18 to 24 hrs by broth microdilution method; assay type: functional; conditions: time 18-24 hrs
Staphylococcus aureus [28] = assay: Antibacterial activity against Staphylococcus aureus assessed as inhibition of bacterial growth; assay type: functional
Candida albicans [29] = assay: Antifungal activity against Candida albicans SC5314 assessed as reduction in fungal growth incubated for 24 hrs by NCCLS based assay; assay type: functional
Aspergillus niger [30] = assay: […] activity against Aspergillus niger NCIM 2191 assessed as reduction in […] by micro-broth dilution method; assay type: functional
Candida albicans [31] = assay: Antifungal activity against Candida albicans Y0109 assessed as reduction in fungal growth incubated for 24 hrs by NCCLS based assay; assay type: functional
Trichophyton rubrum = assay: Antifungal activity against Trichophyton rubrum assessed as reduction in fungal growth incubated for 5 to 7 days by NCCLS based assay; assay type: functional; conditions: time 5-7 day
Aspergillus fumigatus [32] = assay: […] activity against Aspergillus fumigatus NCIM 2081 assessed as reduction in […] by micro-broth dilution method; assay type: functional
Aspergillus niger [33] = assay: Antifungal activity against Aspergillus niger assessed as fungal growth inhibition; assay type: functional
Aspergillus fumigatus [34] = assay: Antifungal activity against Aspergillus fumigatus 7544 assessed as reduction in fungal growth incubated for 5 to 7 days by NCCLS based assay; assay type: functional; conditions: time 5-7 day
Candida albicans [35] = assay: Antifungal activity against Candida albicans MTCC 227 assessed as inhibition of fungal growth; assay type: functional
Cryptococcus neoformans [36] = assay: Antifungal activity against Cryptococcus neoformans assessed as fungal growth inhibition by CLSI based method; assay type: functional
Cryptococcus neoformans [37] = assay: Antifungal activity against Cryptococcus neoformans 32609 assessed as reduction in fungal growth incubated for 72 hrs by NCCLS based assay; assay type: functional
Nakaseomyces glabratus [38] = assay: Antifungal activity against Candida glabrata 537 assessed as reduction in fungal growth incubated for 72 hrs by NCCLS based assay; assay type: functional
Nannizzia gypsea = assay: Antifungal activity against Microsporum gypseum assessed as reduction in fungal growth incubated for 5 to 7 days by NCCLS based assay; assay type: functional; conditions: time 5-7 day
Candida albicans [39] = assay: Antifungal activity against Candida albicans NCIM 2087 assessed as fungal growth inhibition; assay type: functional
Candida albicans [40] = assay: Antifungal activity against Candida albicans assessed as fungal growth inhibition by CLSI based method; assay type: functional
Staphylococcus aureus [41] = assay: Antibacterial activity against Staphylococcus aureus ATCC 6538P; assay type: functional
Pseudomonas aeruginosa [42] = assay: Antibacterial activity against Pseudomonas aeruginosa ATCC 9027; assay type: functional
Escherichia coli [43] = assay: Antibacterial activity against Escherichia coli ATCC 8739; assay type: functional
Enterococcus faecalis = assay: Antibacterial activity against Enterococcus faecalis assessed as bacterial growth inhibition; assay type: functional
Staphylococcus aureus [44] = assay: Antibacterial activity against Staphylococcus aureus assessed as reduction in microbial growth incubated for 18 to 24 hrs by serial dilution method; assay type: functional; conditions: time 18-24 hrs
Enterococcus faecium = assay: Antibacterial activity against Enterococcus faecium ATCC 700221; assay type: functional
Staphylococcus aureus [45] = assay: Antibacterial activity against methicillin-resistant Staphylococcus aureus assessed as reduction in microbial growth incubated for 18 to 24 hrs by serial dilution method; assay type: functional; conditions: time 18-24 hrs
[46] = test system: Staphylococcus epidermidis; assay: Antibacterial activity against Methicillin-resistant Staphylococcus epidermidis assessed as bacterial growth inhibition; assay type: functional
[47] = test system: Staphylococcus epidermidis; assay: Antibacterial activity against Methicillin-sensitive Staphylococcus epidermidis assessed as bacterial growth inhibition; assay type: functional
Staphylococcus aureus [48] = assay: Antibacterial activity against methicillin-sensitive Staphylococcus aureus assessed as reduction in microbial growth incubated for 18 to 24 hrs by serial dilution method; assay type: functional; conditions: time 18-24 hrs

## O=C(CNN1C(=O)CSC1c1ccc(-c2ccc(F)cc2)cc1)NN1C(c2ccc([N+](=O)[O-])cc2)=NNC1S (stereo not given)
Bacillus cereus [1]
  MIC: 3.12 µg/mL (≈ 5.51 µM)
Proteus vulgaris [2]
  MIC: 3.12 µg/mL (≈ 5.51 µM)
Escherichia coli [3]
  MIC: 3.12 µg/mL (≈ 5.51 µM)
Bacillus subtilis [4]
  MIC: 3.12 µg/mL (≈ 5.51 µM)
Staphylococcus aureus [5]
  MIC: 3.12 µg/mL (≈ 5.51 µM)

## OC(CSC(=S)N1CCN(Cc2ccc(Cl)cc2)CC1)(Cn1cncn1)c1ccc(F)cc1F (stereo not given)
Candida parapsilosis
  MIC: 0.063 µg/mL (≈ 0.12 µM)
Candida albicans [6]
  MIC: 0.063 µg/mL (≈ 0.12 µM)
Candida tropicalis
  MIC: 0.063 µg/mL (≈ 0.12 µM)
Nakaseomyces glabratus [7]
  MIC: 0.063 µg/mL (≈ 0.12 µM)
Pichia kudriavzevii
  MIC: 0.063 µg/mL (≈ 0.12 µM)

## CC(C)Cc1ccc(C(C)C(=O)NC(Cc2cn(Cc3cn(CC(=O)Nc4ccccc4Cl)nn3)c3ccccc23)C(=O)NC(Cc2ccccc2)C(N)=O)cc1 (stereo not given)
Staphylococcus aureus [8]
  MIC: 25 µg/mL (≈ 31.8 µM)

## CC1(C)S[C@@H]2[C@H](NC(=O)[C@H](N)c3ccccc3)C(=O)N2[C@H]1C(=O)O [AMPICILLIN]
Bacillus subtilis [9]
  MIC: 1.56 µg/mL (≈ 4.46 µM)
Escherichia coli [10]
  MIC: 1 µg/mL (≈ 2.86 µM)
Micrococcus luteus [11]
  MIC: 1.56 µg/mL
Staphylococcus aureus [12]
  MIC: 1.56 µg/mL
Micrococcus luteus [13]
  MIC: 1.56 µg/mL
Staphylococcus aureus [14]
  MIC: 2 µg/mL (≈ 5.72 µM)
Pseudomonas aeruginosa [15]
  MIC: 0.5 µg/mL (≈ 1.43 µM)
Pseudomonas aeruginosa [16]
  MIC: 4 µg/mL (≈ 11.4 µM)
Bacillus subtilis [17]
  MIC: 1.56 µg/mL
Escherichia coli [18]
  MIC: 1.56 µg/mL
Proteus vulgaris [19]
  MIC: 1.56 µg/mL
Proteus vulgaris [20]
  MIC: 1.56 µg/mL (≈ 4.46 µM)
Salmonella typhimurium
  MIC: 1.56 µg/mL
Bacillus subtilis [21]
  MIC: 0.5 µg/mL (≈ 1.43 µM)

## O=C(O)c1cn(C2CC2)c2cc(N3CCNCC3)c(F)cc2c1=O [CIPROFLOXACIN]
Bacillus subtilis [22]
  MIC: 12.5 µg/mL (≈ 37.7 µM)
Bacillus subtilis [9]
  MIC: 18 µg/mL (≈ 54.3 µM)
Staphylococcus aureus [23]
  MIC: 9 µM (≈ 2.98 µg/mL)
Klebsiella pneumoniae
  MIC: 16 µg/mL (≈ 48.3 µM)
Proteus vulgaris [24]
  MIC: 12.5 µg/mL (≈ 37.7 µM)
Pseudomonas aeruginosa [25]
  MIC: 18 µg/mL (≈ 54.3 µM)
Bacillus cereus [26]
  MIC: 3.12 µg/mL (≈ 9.43 µM)
Staphylococcus aureus [27]
  MIC: 9 µM (≈ 2.98 µg/mL)
Proteus mirabilis
  MIC: 12.5 µg/mL (≈ 37.7 µM)
Staphylococcus aureus [28]
  MIC: 8 µg/mL (≈ 24.1 µM)

## OC(Cn1cncn1)(Cn1cncn1)c1ccc(F)cc1F [FLUCONAZOLE]
Candida albicans [29]
  MIC80: 0.5 µg/mL (≈ 1.63 µM)
Candida parapsilosis
  MIC: 0.5 µg/mL (≈ 1.63 µM)
Aspergillus niger [30]
  MIC: 4 µg/mL (≈ 13.1 µM)
Candida albicans [6]
  MIC: 0.5 µg/mL (≈ 1.63 µM)
Candida albicans [31]
  MIC80: 0.25 µg/mL (≈ 0.816 µM)
Trichophyton rubrum
  MIC80: 8 µg/mL (≈ 26.1 µM)
Aspergillus fumigatus [32]
  MIC: 16 µg/mL (≈ 52.2 µM)
Aspergillus niger [33]
  MIC: 20.4 µg/mL (≈ 66.6 µM)
Aspergillus fumigatus [34]
  MIC80: > 64 µg/mL
Candida albicans [35]
  MIC: 40 µM (≈ 12.3 µg/mL)
Cryptococcus neoformans [36]
  MIC: 4 µg/mL (≈ 13.1 µM)
Cryptococcus neoformans [37]
  MIC80: 1 µg/mL (≈ 3.27 µM)
Nakaseomyces glabratus [38]
  MIC80: 2 µg/mL (≈ 6.53 µM)
Nannizzia gypsea
  MIC80: 32 µg/mL (≈ 104 µM)
Candida tropicalis
  MIC: 0.5 µg/mL (≈ 1.63 µM)
Candida albicans [39]
  MIC: 1 µg/mL (≈ 3.27 µM)
Nakaseomyces glabratus [7]
  MIC: 0.5 µg/mL (≈ 1.63 µM)
Staphylococcus aureus [27]
  MIC: 40 µM (≈ 12.3 µg/mL)
Candida albicans [40]
  MIC: 4 µg/mL (≈ 13.1 µM)
Pichia kudriavzevii
  MIC: 0.5 µg/mL (≈ 1.63 µM)

## CCn1cc(C(=O)O)c(=O)c2cc(F)c(N3CCNCC3)cc21 [NORFLOXACIN]
Staphylococcus aureus [41]
  MIC: 0.125 µg/mL (≈ 0.391 µM)
Pseudomonas aeruginosa [42]
  MIC: 0.125 µg/mL (≈ 0.391 µM)
Escherichia coli [43]
  MIC: 0.125 µg/mL (≈ 0.391 µM)

## CN[C@H](CC(C)C)C(=O)N[C@H]1C(=O)N[C@@H](CC(N)=O)C(=O)N[C@H]2C(=O)N[C@H]3C(=O)N[C@H](C(=O)N[C@H](C(=O)O)c4cc(O)cc(O)c4-c4cc3ccc4O)[C@H](O)c3ccc(c(Cl)c3)Oc3cc2cc(c3O[C@@H]2O[C@H](CO)[C@@H](O)[C@H](O)[C@H]2O[C@H]2C[C@](C)(N)[C@H](O)[C@H](C)O2)Oc2ccc(cc2Cl)[C@H]1O [VANCOMYCIN]
Enterococcus faecalis
  MIC: 0.5 µg/mL (≈ 0.345 µM)
Staphylococcus aureus [44]
  MIC: 0.25 µg/mL
Enterococcus faecium
  MIC: > 88.3 µM
Staphylococcus aureus [45]
  MIC: 0.25 µg/mL
[46]
  MIC: 0.5 µg/mL (≈ 0.345 µM)
[47]
  MIC: 0.5 µg/mL (≈ 0.345 µM)
Staphylococcus aureus [48]
  MIC: 0.25 µg/mL
